Data published in patent US9416111B2, “Substituted diazine and triazine spleen tyrosine kinease (Syk) inhibitors” (Merck Sharp & Dohme Corp., priority 2012, dated 2016).
Where two headings read alike, the source gives them in different places.

Target: T1, recombinant human GST-SYK (Homo sapiens, UniProt P43405)
T1 construct: purchased Carna Biosciences 08-176
Experiment: Homogeneous Time-Resolved Fluorescence (HTRF) assay for the recombinant human Syk enzyme
Format: biochemical
Details: GST-hSYK 5 pM, ATP 25 μM
Summary of the method: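 GST-hSYK (5 pM) was preincubated 10 min with inhibitor in 15 mM Tris-HCl pH 7.5, 0.01% tween 20, 2 mM DTT; reaction started with 250 nM biotinylated peptide, 5 mM Mg and 25 μM ATP, run 45 min at room temperature. Phosphopeptide detected by HTRF (Eu-anti-phosphotyrosine/SA-APC) after EDTA quench.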

[1] = IC50 rated in classes, read-out: rhSYK Activity

IC50 [1] [nM]	IC50 (values in text, read-out: IC50) [nM]	SMILES
< 100		Cc1cc(Nc2nccc(C(F)(F)F)n2)cc(-c2cnc(NCCCCO)nc2)c1 [Example 2.35, 4-{[5-(3-methyl-5-{[4-(trifluoromethyl)pyrimidin-2-yl]amino}phenyl)pyrimidin-2-yl]amino}butan-1-ol]
< 100	2.9	Cc1cc(Nc2nccc(C(F)F)n2)cc(-c2cnc(C[C@H]3CC[C@H](C(=O)O)CC3)nc2)c1 [Example 5.1, trans-4-{[5-(3-{[4-(difluoromethyl)pyrimidin-2-yl]amino}-5-methylphenyl)pyrimidin-2-yl]methyl}cyclohexanecarboxylic acid]
< 100		Cc1cc(Nc2nccc(C(F)(F)F)n2)cc(-c2cnc(NC3(CO)CCCC3)nc2)c1 [Example 2.36, (1-{[5-(3-methyl-5-{[4-(trifluoromethyl)pyrimidin-2-yl]amino}phenyl)pyrimidin-2-yl]amino}cyclopentyl)methanol]
< 100		Cc1cc(Nc2nccc(C(F)(F)F)n2)cc(-c2cnc(NCC3COCCO3)nc2)c1 (stereo not shown) [Example 2.19, N-(3-{2-[(1,4-dioxan-2-ylmethyl)amino]pyrimidin-5-yl}-5-methylphenyl)-4-(trifluoromethyl)pyrimidin-2-amine]
< 100		Cc1cc(Nc2nccc(C(F)(F)F)n2)cc(-c2cnc(N(C)CCC3OCCO3)nc2)c1 [Example 2.45, N-[2-(1,3-dioxolan-2-yl)ethyl]-N-methyl-5-(3-methyl-5-{[4-(trifluoromethyl)pyrimidin-2-yl]amino}phenyl)pyrimidin-2-amine]
< 100		Cc1cc(Nc2nccc(C(F)(F)F)n2)cc(-c2cnc(NCCCC(=O)O)nc2)c1 [Example 2.11, 4-{[5-(3-methyl-5-{[4-(trifluoromethyl)pyrimidin-2-yl]amino}phenyl)pyrimidin-2-yl]amino}butanoic acid]
100 to 1000		O=C(O)CCc1cncc(-c2cccc(Nc3nccc(C(F)(F)F)n3)c2)n1 [Example 3.14, 3-[6-(3-{[4-(trifluoromethyl)pyrimidin-2-yl]amino}phenyl)pyrazin-2-yl]propanoic acid]
< 100		Cc1cc(Nc2nccc(C(F)(F)F)n2)cc(-c2cnc(NCCS(N)(=O)=O)nc2)c1 [Example 2.26, 2-{[5-(3-methyl-5-{[4-(trifluoromethyl)pyrimidin-2-yl]amino}phenyl)pyrimidin-2-yl]amino}ethanesulfonamide]
< 100	< 0.5	Cc1cc(Nc2nccc(C(F)F)n2)cc(-c2cnc([C@H](C)[C@H]3CC[C@H](C(=O)O)[C@H](C)C3)nc2)c1 (single isomer, unassigned) [Example 7.2]
100 to 1000		COc1ccnc(Nc2cc(C)cc(-c3cc(CCC(=O)O)ncn3)c2)n1 [Example 3.47, 3-(6-{3-[(4-methoxypyrimidin-2-yl)amino]-5-methylphenyl}pyrimidin-4-yl)propanoic acid]
< 100		CCCN1CCCN(c2ncc(-c3cc(C)cc(Nc4nccc(C(F)(F)F)n4)c3)cn2)CC1 [Example 2.68, N-{3-methyl-5-[2-(4-propyl-1,4-diazepan-1-yl)pyrimidin-5-yl]phenyl}-4-(trifluoromethyl)pyrimidin-2-amine]
100 to 1000		Cc1cc(Nc2nccc(C)n2)cc(-c2cnc(CCC(=O)O)cn2)c1 [Example 3.10, 3-(5-{3-methyl-5-[(4-methylpyrimidin-2-yl)amino]phenyl}pyrazin-2-yl)propanoic acid]
100 to 1000		Cc1cc(Nc2nccc(C(F)(F)F)n2)cc(-c2cnc(N3CCOC(CCO)C3)nc2)c1 (stereo not shown) [Example 2.23, 2-{4-[5-(3-methyl-5-{[4-(trifluoromethyl)pyrimidin-2-yl]amino}phenyl)pyrimidin-2-yl]morpholin-2-yl}ethanol]
100 to 1000		CCOC(=O)CCc1cc(-c2cc(C)cc(Nc3nccc(C(F)(F)F)n3)c2)ncn1 [Example 3.49, ethyl 3-[6-(3-methyl-5-{[4-(trifluoromethyl)pyrimidin-2-yl]amino}phenyl)pyrimidin-4-yl]propanoate]
